Active and inactive are the calls of the source. The calls are words filed in the database; no cut-off is given here.
Legend:
Dipeptidyl peptidase 8 = Dipeptidyl peptidase 8 (Homo sapiens, UniProt Q6V1X1); assay: Inhibition of DPP8 (unknown origin) using Gly-Pro-AMC as substrate preincubated for 15 mins followed by substrate addition measured at 60 secs interval for 20 mins by fluorometic method
Dipeptidyl peptidase 9 = Dipeptidyl peptidase 9 (Homo sapiens, UniProt Q86TI2); assay: Inhibition of DPP9 (unknown origin) using Gly-Pro-AMC as substrate preincubated for 15 mins followed by substrate addition measured at 60 secs interval for 20 mins by fluorometic method
[1] = Stability in PBS at pH 7.4 assessed as compound remaining at 1 uM after 120 mins by LC-MS/MS analysis relative to control; format: physicochemical; conditions: read-out: Stability
[2] = Stability in Sprague-Dawley rat plasma assessed as compound remaining at 1 uM measured up to 120 mins by LC-MS/MS analysis relative to control; format: ADME, cell-free; conditions: read-out: Stability
[3] = Cytotoxicity against human LO2 cells assessed as cell viability at 20 uM after 48 hrs by MTT assay; format: cell-based, L02; conditions: read-out: Activity
Mus musculus [4] = assay: Anti-diabetic activity in 12 hrs-fasted ICR mouse assessed as reduction in blood glucose AUC (0 to 120 mins)at 10 mg/kg, po pretreated for 60 mins followed by glucose challenge and measured after 120 mins post glucose challenge by OGTT relative to control; format: functional; design: scale not given: the % may be the effect or the level left
Mus musculus [5] = assay: Anti-diabetic activity in 8 hrs-fasted C57BL/6 db/db mouse assessed as reduction in blood glucose AUC (0 to 120 mins) at 10 mg/kg, po pretreated for 60 mins followed by glucose challenge and measured after 120 mins post glucose challenge by OGTT relative to control; format: functional; design: scale not given: the % may be the effect or the level left
Mus musculus [6] = assay: Anti-diabetic activity in 8 hrs-fasted C57BL/6 db/db mouse assessed as reduction in blood glucose AUC (0 to 120 mins) at 3 mg/kg, po pretreated for 60 mins followed by glucose challenge and measured after 120 mins post glucose challenge by OGTT relative to control; format: functional; design: scale not given: the % may be the effect or the level left
Mus musculus [7] = assay: Anti-diabetic activity in 8 hrs-fasted C57BL/6 db/db mouse assessed as reduction in blood glucose AUC (0 to 120 mins) at 1 mg/kg, po pretreated for 60 mins followed by glucose challenge and measured after 120 mins post glucose challenge by OGTT relative to control; format: functional; design: scale not given: the % may be the effect or the level left
Mus musculus [8] = assay: Anti-diabetic activity in db/db mouse assessed as reduction in fasting blood glucose leave at 3 mg/kg, po dosed once daily for 3 weeks measured for every 7 days; format: functional, organism-based
Mus musculus [9] = assay: Anti-diabetic activity in db/db mouse assessed as reduction in fasting blood glucose leave at 10 mg/kg, po dosed once daily for 3 weeks measured for every 7 days; format: functional, organism-based
Mus musculus [10] = assay: Anti-diabetic activity in db/db mouse assessed as increase in glucose tolerance at 10 mg/kg, po dosed once daily for 3 weeks following 12 hrs fasting and glucose challenge measured up to 120 mins; format: functional, organism-based
Mus musculus [11] = assay: Anti-diabetic activity in db/db mouse assessed as reduction in blood glucose AUC (0 to 120 mins) at 3 mg/kg, po dosed once daily for 3 weeks following 12 hrs fasting and glucose challenge measured up to 120 mins relative to control; format: functional; design: scale not given: the % may be the effect or the level left
Mus musculus [12] = assay: Anti-diabetic activity in db/db mouse assessed as reduction in blood glucose AUC (0 to 120 mins) at 10 mg/kg, po dosed once daily for 3 weeks following 12 hrs fasting and glucose challenge measured up to 120 mins relative to control; format: functional; design: scale not given: the % may be the effect or the level left
[13] = Toxicity in db/db mouse assessed as increase in body weight at 3 to 10 mg/kg, po dosed once daily for 3 weeks and measured every day; format: organism-based; conditions: in vivo, 504 h
[14] = Half life in Sprague-Dawley rat at 10 mg/kg, po via gavage after 48 hrs by LC-MS/MS analysis; format: ADME, organism-based; conditions: in vivo
[15] = Half life in Sprague-Dawley rat assessed as (R)-2-((8-(3-aminopiperidin-1-yl)-7-(but-2-yn-1-yl)-3-methyl-2,6-dioxo-2,3,6,7-tetrahydro-1H-purin-1-yl)methyl)-5-chlorobenzoic acid level at 10 mg/kg, po via gavage after 48 hrs by LC-MS/MS analysis; format: ADME, organism-based; conditions: in vivo
[16] = Tmax in Sprague-Dawley rat at 10 mg/kg, po via gavage after 48 hrs by LC-MS/MS analysis; format: ADME, organism-based; conditions: in vivo
[17] = Tmax in Sprague-Dawley rat assessed as (R)-2-((8-(3-aminopiperidin-1-yl)-7-(but-2-yn-1-yl)-3-methyl-2,6-dioxo-2,3,6,7-tetrahydro-1H-purin-1-yl)methyl)-5-chlorobenzoic acid level at 10 mg/kg, po via gavage after 48 hrs by LC-MS/MS analysis; format: ADME, organism-based; conditions: in vivo
[18] = Cmax in Sprague-Dawley rat at 10 mg/kg, po via gavage after 48 hrs by LC-MS/MS analysis; format: ADME, organism-based; design: dose 10 mg/kg, route oral; conditions: in vivo
[19] = Cmax in Sprague-Dawley rat assessed as (R)-2-((8-(3-aminopiperidin-1-yl)-7-(but-2-yn-1-yl)-3-methyl-2,6-dioxo-2,3,6,7-tetrahydro-1H-purin-1-yl)methyl)-5-chlorobenzoic acid level at 10 mg/kg, po via gavage after 48 hrs by LC-MS/MS analysis; format: ADME, organism-based; design: dose 10 mg/kg, route oral; conditions: in vivo
[20] = AUC (0 to infinity) in Sprague-Dawley rat at 10 mg/kg, po via gavage after 48 hrs by LC-MS/MS analysis; format: ADME, organism-based; design: dose 10 mg/kg, route oral, time infinity; conditions: in vivo
[21] = AUC (0 to infinity) in Sprague-Dawley rat assessed as (R)-2-((8-(3-aminopiperidin-1-yl)-7-(but-2-yn-1-yl)-3-methyl-2,6-dioxo-2,3,6,7-tetrahydro-1H-purin-1-yl)methyl)-5-chlorobenzoic acid level at 10 mg/kg, po via gavage after 48 hrs by LC-MS/MS analysis; format: ADME, organism-based; design: dose 10 mg/kg, route oral, time infinity; conditions: in vivo
[22] = Clearance in Sprague-Dawley rat at 10 mg/kg, po via gavage after 48 hrs by LC-MS/MS analysis; format: ADME, organism-based; conditions: in vivo
[23] = Clearance in Sprague-Dawley rat assessed as (R)-2-((8-(3-aminopiperidin-1-yl)-7-(but-2-yn-1-yl)-3-methyl-2,6-dioxo-2,3,6,7-tetrahydro-1H-purin-1-yl)methyl)-5-chlorobenzoic acid level at 10 mg/kg, po via gavage after 48 hrs by LC-MS/MS analysis; format: ADME, organism-based; conditions: in vivo
[24] = Oral bioavailability in Sprague-Dawley rat assessed as (R)-2-((8-(3-aminopiperidin-1-yl)-7-(but-2-yn-1-yl)-3-methyl-2,6-dioxo-2,3,6,7-tetrahydro-1H-purin-1-yl)methyl)-5-chlorobenzoic acid level at 10 mg/kg via gavage after 48 hrs by LC-MS/MS analysis; format: ADME, organism-based; conditions: in vivo
Mus musculus [25] = assay: Anti-diabetic activity in po dosed 8 hrs-fasted C57BL/6 db/db mouse assessed as increase in glucose tolerance pretreated for 60 mins followed by glucose challenge and measured after 120 mins post glucose challenge by OGTT; format: functional, organism-based
Rattus norvegicus [26] = species: Rattus norvegicus; assay: animal or person; conditions: Sprague-Dawley, po, 12 h, read-out: INH
Rattus norvegicus [27] = species: Rattus norvegicus; assay: animal or person; conditions: Sprague-Dawley, po, 24 h, read-out: INH

Sequence of Dipeptidyl peptidase 9 (Q86TI2 whole entry): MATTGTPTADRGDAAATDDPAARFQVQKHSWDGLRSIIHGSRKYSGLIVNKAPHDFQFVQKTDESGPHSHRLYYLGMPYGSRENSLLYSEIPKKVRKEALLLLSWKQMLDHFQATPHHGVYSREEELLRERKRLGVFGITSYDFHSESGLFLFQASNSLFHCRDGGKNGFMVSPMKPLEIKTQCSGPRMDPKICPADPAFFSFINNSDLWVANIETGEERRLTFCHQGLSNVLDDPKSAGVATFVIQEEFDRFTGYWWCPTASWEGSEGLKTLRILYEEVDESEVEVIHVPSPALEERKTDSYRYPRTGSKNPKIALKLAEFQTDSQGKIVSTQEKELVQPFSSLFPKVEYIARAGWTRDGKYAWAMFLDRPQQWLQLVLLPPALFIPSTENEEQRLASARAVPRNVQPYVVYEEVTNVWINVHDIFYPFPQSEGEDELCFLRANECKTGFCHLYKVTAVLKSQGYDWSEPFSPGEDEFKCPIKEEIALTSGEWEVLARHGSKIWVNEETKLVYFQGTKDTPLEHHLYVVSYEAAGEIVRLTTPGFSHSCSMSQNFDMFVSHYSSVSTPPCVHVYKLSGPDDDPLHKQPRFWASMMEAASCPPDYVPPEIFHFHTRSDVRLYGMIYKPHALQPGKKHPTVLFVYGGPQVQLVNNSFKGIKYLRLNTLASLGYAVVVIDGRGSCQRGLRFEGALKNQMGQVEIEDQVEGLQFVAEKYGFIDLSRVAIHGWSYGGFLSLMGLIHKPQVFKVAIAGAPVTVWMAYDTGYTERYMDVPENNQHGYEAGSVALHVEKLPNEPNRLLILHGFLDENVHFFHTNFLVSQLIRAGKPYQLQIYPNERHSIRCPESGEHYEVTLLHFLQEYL
Sequence of Dipeptidyl peptidase 8 (Q6V1X1 whole entry): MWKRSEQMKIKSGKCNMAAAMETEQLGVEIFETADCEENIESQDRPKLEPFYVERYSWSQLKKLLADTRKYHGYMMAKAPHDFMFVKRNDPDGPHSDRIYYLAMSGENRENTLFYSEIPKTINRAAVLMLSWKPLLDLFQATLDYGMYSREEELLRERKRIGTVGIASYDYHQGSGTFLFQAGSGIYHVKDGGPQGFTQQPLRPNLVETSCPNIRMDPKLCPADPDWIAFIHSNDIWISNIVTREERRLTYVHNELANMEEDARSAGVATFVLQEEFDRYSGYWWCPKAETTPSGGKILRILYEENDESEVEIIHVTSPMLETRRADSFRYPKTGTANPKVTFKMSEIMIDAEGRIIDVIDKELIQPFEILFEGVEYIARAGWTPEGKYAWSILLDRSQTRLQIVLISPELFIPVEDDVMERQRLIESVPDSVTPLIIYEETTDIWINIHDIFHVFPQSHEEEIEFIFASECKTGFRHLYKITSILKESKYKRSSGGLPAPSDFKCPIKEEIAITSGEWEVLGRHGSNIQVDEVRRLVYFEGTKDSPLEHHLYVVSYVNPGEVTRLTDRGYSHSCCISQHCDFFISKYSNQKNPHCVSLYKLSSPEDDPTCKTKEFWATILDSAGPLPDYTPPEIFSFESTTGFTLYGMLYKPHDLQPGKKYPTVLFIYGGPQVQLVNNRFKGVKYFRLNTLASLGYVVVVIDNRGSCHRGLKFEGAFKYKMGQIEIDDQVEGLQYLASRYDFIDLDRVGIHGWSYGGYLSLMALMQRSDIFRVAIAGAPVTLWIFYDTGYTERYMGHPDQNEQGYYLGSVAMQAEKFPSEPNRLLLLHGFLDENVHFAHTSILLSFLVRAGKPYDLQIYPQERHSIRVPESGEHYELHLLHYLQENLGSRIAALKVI

## CC#CCn1c(N2CCC[C@@H](N)C2)nc2c1c(=O)n(Cc1ccc(Cl)cc1C(=O)OC)c(=O)n2C
Dipeptidyl peptidase 8
  IC50: > 100 µM
Dipeptidyl peptidase 9
  IC50: > 100 µM
[1]
  remaining at 2 h, 1 µM: 101%
[2]
  remaining at 2 h, 1 µM: 65.2%
[3]
  viability at 48 h, 20 µM: 90%
Mus musculus [4]
  Activity: 17.43%
Mus musculus [5]
  Activity: 54.7%
Mus musculus [6]
  Activity: 28.8%
Mus musculus [7]
  Activity: 26.4%
Mus musculus [8]
  Activity: Active
Mus musculus [9]
  Activity: Active
Mus musculus [10]
  Activity: Active
Mus musculus [11]
  Activity: 6%
Mus musculus [12]
  Activity: 13.2%
[13]
  Activity: Non-Toxic
[14]
  half-life: 10.1 h
[15]
  t1/2: 11.81 h
[16]
  Tmax: 1 h
[17]
  Tmax: 1 h
[18]
  Cmax: 1180 ng/mL
[19]
  Cmax: 693.32 ng/mL
[20]
  AUC: 6107.3 ng·h/mL
[21]
  AUC: 3746.05 ng·h/mL
[22]
  CL: 2.67 mL/min/kg
[23]
  CL: 4.5 mL/min/kg
[24]
  F: 19.46%
Mus musculus [25]
  Activity: Dose-dependent effect
Rattus norvegicus [26]
  inhibition in vivo at 10 mg/kg: 85%
Rattus norvegicus [27]
  inhibition in vivo at 10 mg/kg: 60%
